Where two headings read alike, the source gives them in different places.
Tests used:
[1] = system: HCT116 homozygous MTAP knockout cells; experiment: Proliferation assay (CellTiter-Glo, 10 days) in HCT116 homozygous MTAP knockout cells; type: cell-based; conditions: CellTiter-Glo after 10 days of treatment, read-out: Proliferation IC50 (nM) HCT116 MTAP_KO
In short: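 CellTiter-Glo viability read on day 11 gives a 10-day IC50. Dosing began one day after seeding, with a 1:10 split into fresh drug-containing medium on day 6. Cells are HCT116 lacking both MTAP alleles via CRISPR/Cas9, run alongside the parental line.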

[2] = system: PRMT5-dependent Symmetric Di-methyl Arginine signal in HCT116 homozygous MTAP Knockout cells; experiment: SYM11 In-Cell Western in HCT116 homozygous MTAP knockout cells; type: cell-based
Procedure: HCT116 cells were genetically engineered to knock out the function of both MTAP alleles using a CRISPR/Cas9 system and an sgRNA targeting the MTAP gene. Following Cas9/MTAP sgRNA transduction, clones were screened to confirm that each allele of the MTAP gene had been inactivated (i.e., homozygous MTAP knock out) creating an MTAP-deficient cell.
Control samples were analyzed in parallel.
Briefly, on Day 0, 2,000 HCT116 parental or HCT116 homozygous MTAP knockout cells were seeded in 96 well plates in McCoy's 5A supplemented with 10% fetal bovine serum and pen/strep and the cells were incubated overnight at 37° C. plus 5% CO2. The following day, cells were treated with DMSO vehicle control or a dose response of PRMT5 inhibitors, and incubated at 37° C. plus 5% CO^2 for four days.
After 4 days of treatment, the cells were fixed by adding 50 μl of 4% paraformaldehyde solution to each well and the cells were incubated for 20 min at room temperature. The paraformaldehyde solution was removed, 150 μl of ice-cold methanol was added and the plate was placed −20° C. for 10 minutes. The methanol was removed, 150 μl of Odyssey Blocking buffer+0.05% Tween20 was added and the plate was incubated at room temperature with shaking for one hour.
The primary SYM11 antibody solution was removed by aspiration and the wells were washed three consecutive times with phosphate buffered saline containing 0.1% Tween-20 (PBST).
The secondary antibody solution was removed by aspiration and the wells were washed three consecutive times with PBST.
The SYM11 signal and the DRAQ5 signal were quantified using a Li-Cor Odyssey machine reading at […], respectively. The SYM11/DRAQ5 ratio was used to calculate the inhibition of Symmetric Dimethyl Arginine as percent of DMSO control.

PRMT5/MEP50 complex = biological target: T1, PRMT5/MEP50 complex (Homo sapiens, UniProt O14744); experiment: PRMT5:MEP50 HotSpot Assay (full-length histone H2A substrate, plus and minus MTA); type: biochemical; conditions: IC50 + 2 μM MTA, in the presence of 2 μM MTA
T1 construct: purchased Reaction Biology Corporation
In short: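 Tritiated product on full-length recombinant H2A was counted by scintillation after the stopped reaction was captured on filter paper. Substrate is histone H2A; conditions include plus and minus MTA.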

[3] = 4 days of treatment, SYM11/DRAQ5 ratio as percent of DMSO control, read-out: In-cell-Western (SYM11) IC50 (nM) HCT116 MTAP_KO
[4] = Homo sapiens, HCT-116, 96 h, 4 days of treatment, SYM11/DRAQ5 ratio as percent of DMSO control, read-out: In-cell-Western (SYM11) IC50 (nM) HCT116 MTAP_KO

T1 sequence (O14744 2-637 limits assumed): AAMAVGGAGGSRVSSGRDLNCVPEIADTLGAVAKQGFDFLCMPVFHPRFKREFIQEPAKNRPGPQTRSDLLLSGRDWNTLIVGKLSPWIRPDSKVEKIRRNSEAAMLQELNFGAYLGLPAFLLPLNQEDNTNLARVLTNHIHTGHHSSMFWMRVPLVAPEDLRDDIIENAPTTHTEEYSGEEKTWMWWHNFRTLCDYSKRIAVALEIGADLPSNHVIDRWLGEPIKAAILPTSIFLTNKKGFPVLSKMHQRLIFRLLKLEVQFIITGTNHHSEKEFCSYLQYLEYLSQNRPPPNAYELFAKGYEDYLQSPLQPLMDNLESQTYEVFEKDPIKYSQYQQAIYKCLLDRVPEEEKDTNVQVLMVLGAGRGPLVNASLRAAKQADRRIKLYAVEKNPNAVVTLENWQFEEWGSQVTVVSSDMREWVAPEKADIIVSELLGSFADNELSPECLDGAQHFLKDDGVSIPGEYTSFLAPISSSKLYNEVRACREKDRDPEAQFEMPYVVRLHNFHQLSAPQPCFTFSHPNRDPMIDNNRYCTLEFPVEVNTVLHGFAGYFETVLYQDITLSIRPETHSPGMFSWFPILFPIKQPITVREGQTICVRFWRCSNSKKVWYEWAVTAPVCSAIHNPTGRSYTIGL
T1 sequence (Q9BQA1 2-342 partner limits assumed): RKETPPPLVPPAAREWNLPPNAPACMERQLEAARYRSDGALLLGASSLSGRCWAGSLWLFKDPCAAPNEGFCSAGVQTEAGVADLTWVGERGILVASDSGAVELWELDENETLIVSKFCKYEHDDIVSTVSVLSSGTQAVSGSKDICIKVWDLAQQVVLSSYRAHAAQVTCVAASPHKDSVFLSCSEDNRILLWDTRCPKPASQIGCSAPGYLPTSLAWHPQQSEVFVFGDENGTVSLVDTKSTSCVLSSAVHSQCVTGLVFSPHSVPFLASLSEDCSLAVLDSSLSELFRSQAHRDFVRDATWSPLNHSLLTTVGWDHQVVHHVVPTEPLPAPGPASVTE

| SMILES | IC50 [2, 3] [nM] | IC50 ([1]; Homo sapiens, HCT-116, 240 h) [nM] | IC50 [2, 4] [nM] | IC50 (PRMT5/MEP50 complex) [µM] | other results |
| --- | --- | --- | --- | --- | --- |
| CCn1cccc(-c2c(-c3ccc4c(=O)[nH]nc(CN)c4c3)cnn2C)c1=O [Example 4-255, 4-(aminomethyl)-6-(5-(1-ethy1-2-oxo-1,2-dihydropyridin-3-yl)-1-methyl-1H-pyrazol-4-yl)phthalazin-1(2H)-one] |  | 1630 | 955 | 9.62 |  |
| Cn1ncc(-c2ccc3c(=O)[nH]nc(CN)c3c2)c1-c1cc2ccccn2c1C#N [Example 4-256, 2-[4-[4-(aminomethyl)-1-oxo-2H-phthalazin-6-yl]-2-methyl-pyrazol-3-yl]indolizine-3-carbonitrile] |  |  | 1000 |  |  |
| Cc1ccc(-c2c(-c3ccc4c(=O)[nH]nc(CN)c4c3)cnn2C)c(C#N)c1 [Example 4-106, 2-(4-(4-(aminomethyl)-1-oxo-1,2-dihydrophthalazin-6-yl)-1-methyl-1H-pyrazol-5-yl)-5-methylbenzonitrile] |  |  | 26 |  |  |
| Cn1ncc(-c2ccc3c(=O)[nH]nc(CN)c3c2)c1-c1c(F)cc2ccccc2c1C#N [Example 4-203, 2-(4-(4-(aminomethyl)-1-oxo-1,2-dibydrophthalazin-6-yl)-1-methyl-1H-pyrazol-5-yl)-3-fluoro-1-naphthonitrile] | 2 |  |  |  |  |
| Cn1ncc(-c2ccc3c(=O)[nH]nc(CN)c3c2)c1-c1cccc2cccc(C#N)c12 [Example 4-265, 8-[4-[4-(aminomethyl)-1-oxo-2H-phthalazin-6-yl]-2-methyl-pyrazol-3-yl]naphthalene-1-carbonitrile] |  | 1650 | 1000 |  |  |
| Cn1ncc(-c2ccc3c(=O)[nH]nc(CN)c3c2)c1-c1c(Cl)cc2ccccc2c1Cl [Example 4-259, 4-(aminomethyl)-6-[5-(1,3-dichloro-2-naphthyl)-1-methyl-pyrazol-4-yl]-2H-phthalazin-1-one] |  | 837 | 97 |  |  |
| Cn1ncc(-c2ccc3c(=O)[nH]nc(CN)c3c2)c1-c1ccc2ncc(F)cc2c1C#N [Example 4-264, 6-[4-[4-(aminomethyl)-1-oxo-2H-phthalazin-6-yl]-2-methyl-pyrazol-3-yl]-3-fluoro-quinoline-5-carbonitrile] |  | 83 | 23 |  |  |
| Cn1ncc(-c2ccc3c(=O)[nH]nc(CN)c3c2)c1-c1ccc2ccc(Cl)cc2c1C#N [Example 4-258, 2-[4-[4-(aminomethyl)-1-oxo-2H-phthalazin-6-yl]-2-methyl-pyrazol-3-yl]-7-chloro-naphthalene-1-carbonitrile] |  | 89 | 28 |  |  |
| Cn1ncc(-c2ccc3c(=O)[nH]nc(CN)c3c2)c1-c1c(F)c(Cl)cc(OC2CC2)c1C#N [Example 16-7, 2-(4-(4-(aminomethyl)-1-oxo-1,2-dihydrophthalazin-6-yl)-1-methyl-1H-pyrazol-5-yl)-4-chloro-6-cyclopropoxy-3-fluorobenzonitrile] |  |  |  |  | IC50 ([2]; read-out: In-cell-Western (SYM11) IC50 (nM) HCT116 MTAP_KO, 4 days of treatment, SYM11/DRAQ5 ratio as percent of DMSO control): 1000 nM |

Second part, led by results:

| IC50 [2, 3] [nM] | IC50 ([1]; Homo sapiens, HCT-116, 240 h) [nM] | IC50 [2, 4] [nM] | IC50 (PRMT5/MEP50 complex) [µM] | SMILES | other results |
| --- | --- | --- | --- | --- | --- |
| 13 |  |  |  | Cc1cc(-c2cnn(C)c2-c2c(F)c(Cl)c3ccccc3c2C#N)cc2c(CN)n[nH]c(=O)c12 (atropisomer, axis not shown; (M)) [Example 16-18, (M)-2-[4-[4-(aminomethyl)-8-methyl-1-oxo-2H-phthalazin-6-yl]-2-methyl-pyrazol-3-yl]-4-chloro-3-fluoro-naphthalene-1-carbonitrile] | IC50 [1]: 19 nM |
|  | 30 | 8 |  | Cn1ncc(-c2cc(Cl)c3c(=O)[nH]nc(CN)c3c2)c1-c1c(F)c(Cl)cc(OC2CC2)c1C#N [Example 10-25, 2-[4-[4-(aminomethyl)-8-chloro-1-oxo-2H-phthalazin-6-yl]-2-methyl-pyrazol-3-yl]-4-chloro-6-(cyclopropoxy)-3-fluoro-benzonitrile] |  |
|  | 3870 | 538 |  | CCc1cccc(-c2c(-c3cc4c(CN)n[nH]c(=O)c4cn3)cnn2C)c1C#N [Example 17-1, 2-[4-[1-(aminomethyl)-4-oxo-3H-pyrido[3,4-d]pyridazin-7-yl]-2-methyl-pyrazol-3-yl]-6-ethyl-benzonitrile] |  |
| 656 |  |  | 2 | Cc1cc(OC2CC2)c(C#N)c(-c2c(-c3cc(C)c4c(=O)[nH]nc(CN)c4c3)cnn2C)c1F (single isomer, unassigned) [Example 16-43, (P)-2-(4-(4-(aminomethyl)-8-methyl-1-oxo-1,2-dihydrophthalazin-6-yl)-1-methyl-1H-pyrazol-5-yl)-6-cyclopropoxy-3-fluoro-4-methylbenzonitrile] | IC50 [1]: 1300 nM |
| 79 |  |  | 0.257 | N#Cc1c(OC2CC2)cc(Cl)c(F)c1-c1c(-c2ccc3c(=O)[nH]nc(CN)c3c2)cnn1C(F)(F)F (atropisomer, axis not shown; (M)) [Example 16-120, (M)-2-(4-(4-(aminomethyl)-1-oxo-1,2-dihydrophthalazin-6-yl)-1-(trifluoromethyl)-1H-pyrazol-5-yl)-4-chloro-6-cyclopropoxy-3-fluorobenzonitrile] |  |
|  |  | 25 | 0.552 | Cc1c(F)c(-c2c(-c3cc(Cl)c4c(=O)[nH]nc(CN)c4c3)cnn2C)c(C#N)c2ncc(Cl)cc12 (atropisomer, axis not shown; (M)) [Example 16-98, (M)-7-(4-(4-(aminomethyl)-8-chloro-1-oxo-1,2-dihydrophthalazin-6-yl)-1-methyl-1H-pyrazol-5-yl)-3-chloro-6-fluoro-5-methylquinoline-8-carbonitrile] |  |
| 1000 |  |  | 0.489 | N#Cc1c(OC2CC2)cc(Cl)c(F)c1-c1c(-c2ccc3c(=O)[nH]nc(CN)c3c2)cnn1C(F)(F)F (atropisomer, axis not shown; (P)) [Example 16-119, (P)-2-(4-(4-(aminomethyl)-1-oxo-1,2-dihydrophthalazin-6-yl)-1-(trifluoromethyl)-1H-pyrazol-5-yl)-4-chloro-6-cyclopropoxy-3-fluorobenzonitrile] |  |
| 129 |  |  |  | Cc1cc(-c2cnn(C)c2-c2c(F)c(Cl)c3ccccc3c2C#N)cc2c(CN)n[nH]c(=O)c12 (atropisomer, axis not shown; (P)) [Example 16-17, (P)-2-[4-[4-(aminomethyl)-8-methyl-1-oxo-2H-phthalazin-6-yl]-2-methyl-pyrazol-3-yl]-4-chloro-3-fluoro-naphthalene-1-carbonitrile] | IC50 [1]: 285 nM |
|  | 83 | 35 |  | Cc1cc(-c2cnn(C)c2-c2c(C#N)cc3ccccc3c2Cl)cc2c(CN)n[nH]c(=O)c12 [Example 10-26, 3-[4-[4-(aminomethyl)-8-methyl-1-oxo-2H-phthalazin-6-yl]-2-methyl-pyrazol-3-yl]-4-chloro-naphthalene-2-carbonitrile] |  |
|  | 432 | 80 |  | Cn1ncc(-c2ccc3c(=O)[nH]nc(CN)c3c2F)c1-c1ccc2ccccc2c1C#N [Example 17-2, 2-[4-[4-(aminomethyl)-5-fluoro-1-oxo-2H-phthalazin-6-yl]-2-methyl-pyrazol-3-yl]naphthalene-1-carbonitrile] |  |
|  |  | 22 | 5.94 | Cc1c(F)c(-c2c(-c3cc(C)c4c(=O)[nH]nc(CN)c4c3)cnn2C)c(C#N)c2ncc(Cl)cc12 (single isomer, unassigned) [Example 16-96, (M)-7-(4-(4-(aminomethyl)-8-methyl-1-oxo-1,2-dihydrophthalazin-6-yl)-1-methyl-1H-pyrazol-5-yl)-3-chloro-6-fluoro-5-methylquinoline-8-carbonitrile] |  |
